Reference: BigSolDB 2.1

c1cc(-n2c3ccccc3c3ccccc32)cc(-n2c3ccccc3c3ccccc32)c1
solubility (mole fraction)
Conditions | 273.15 K | 283.15 K | 293.15 K | 303.15 K | 313.15 K | 323.15 K
in DMSO | – | – | 0.00436 | 0.00443 | 0.00472 | 0.00505
in NMP | – | 0.062 | 0.0702 | 0.0761 | 0.0801 | –
in THF | – | 0.0507 | 0.0528 | 0.0598 | 0.0792 | –
in acetonitrile | – | 0.000243 | 0.000311 | 0.000363 | 0.000483 | –
in dichloromethane | 0.0949 | 0.107 | 0.112 | 0.139 | – | –
in ethanol | – | 0.000448 | 0.000561 | 0.000802 | 0.00109 | –
in ethyl acetate | – | 0.00426 | 0.00599 | 0.00827 | 0.00879 | –
in isopropanol | – | 4.55e-05 | 5.9e-05 | 6.95e-05 | 0.00011 | –
in methanol | – | 4.36e-05 | 6.14e-05 | 9.66e-05 | 0.000108 | –
in n-butanol | – | 0.000122 | 0.00017 | 0.000217 | 0.000318 | –
in n-hexane | – | 0.000183 | 0.000259 | 0.000342 | 0.000381 | –
in toluene | – | 0.0263 | 0.0316 | 0.0336 | 0.0445 | –
